The values below are quoted from earlier work in US20260335285A1, “A TOPICAL COMPOSITION COMPRISING CHLORINE E6 AND ZINC L-PYROGLUTAMATE” (ZXA GROUP LTD., priority 2022, published 2026).

The conditions of this series: known in the art; topical.

Each structure is given as a SMILES string.

As to `C=Cc1c(C)c2cc3nc(c(CC(=O)O)c4[nH]c(cc5nc(cc1[nH]2)C(C)=C5CC)c(C)c4C(=O)O)[C@@H](CCC(=O)O)[C@@H]3C` [chlorine e6, (17S,18S)-18-(2-carboxyethyl)-20-(carboxymethyl)-12-ethenyl-7-ethyl-3,8,13,17-tetramethyl-17,18,22,23-tetrahydroporphyrin-2-carboxylic acid], the “delivery into the skin” value is recorded as “inefficient delivery into the skin”.
